Measured values reported in ChEMBL document CHEMBL4368941, “Discovery of 3,6-diaryl-1H-pyrazolo[3,4-b]pyridines as potent anaplastic lymphoma kinase (ALK) inhibitors” (Bioorg Med Chem Lett, 2019).

How the values were obtained:
[1] = target: ALK tyrosine kinase receptor (Homo sapiens, UniProt Q9UM73)
Description: Inhibition of recombinant ALK (unknown origin) using peptide substrate measured after 1 hr by LanthaScreen assay

KARPAS-299 = assay: cells; conditions: Homo sapiens, KARPAS-299, 72 h
Description: Antiproliferative activity against human KARPAS299 cells after 3 days by MTT assay

Sequence of ALK tyrosine kinase receptor (Q9UM73 whole entry): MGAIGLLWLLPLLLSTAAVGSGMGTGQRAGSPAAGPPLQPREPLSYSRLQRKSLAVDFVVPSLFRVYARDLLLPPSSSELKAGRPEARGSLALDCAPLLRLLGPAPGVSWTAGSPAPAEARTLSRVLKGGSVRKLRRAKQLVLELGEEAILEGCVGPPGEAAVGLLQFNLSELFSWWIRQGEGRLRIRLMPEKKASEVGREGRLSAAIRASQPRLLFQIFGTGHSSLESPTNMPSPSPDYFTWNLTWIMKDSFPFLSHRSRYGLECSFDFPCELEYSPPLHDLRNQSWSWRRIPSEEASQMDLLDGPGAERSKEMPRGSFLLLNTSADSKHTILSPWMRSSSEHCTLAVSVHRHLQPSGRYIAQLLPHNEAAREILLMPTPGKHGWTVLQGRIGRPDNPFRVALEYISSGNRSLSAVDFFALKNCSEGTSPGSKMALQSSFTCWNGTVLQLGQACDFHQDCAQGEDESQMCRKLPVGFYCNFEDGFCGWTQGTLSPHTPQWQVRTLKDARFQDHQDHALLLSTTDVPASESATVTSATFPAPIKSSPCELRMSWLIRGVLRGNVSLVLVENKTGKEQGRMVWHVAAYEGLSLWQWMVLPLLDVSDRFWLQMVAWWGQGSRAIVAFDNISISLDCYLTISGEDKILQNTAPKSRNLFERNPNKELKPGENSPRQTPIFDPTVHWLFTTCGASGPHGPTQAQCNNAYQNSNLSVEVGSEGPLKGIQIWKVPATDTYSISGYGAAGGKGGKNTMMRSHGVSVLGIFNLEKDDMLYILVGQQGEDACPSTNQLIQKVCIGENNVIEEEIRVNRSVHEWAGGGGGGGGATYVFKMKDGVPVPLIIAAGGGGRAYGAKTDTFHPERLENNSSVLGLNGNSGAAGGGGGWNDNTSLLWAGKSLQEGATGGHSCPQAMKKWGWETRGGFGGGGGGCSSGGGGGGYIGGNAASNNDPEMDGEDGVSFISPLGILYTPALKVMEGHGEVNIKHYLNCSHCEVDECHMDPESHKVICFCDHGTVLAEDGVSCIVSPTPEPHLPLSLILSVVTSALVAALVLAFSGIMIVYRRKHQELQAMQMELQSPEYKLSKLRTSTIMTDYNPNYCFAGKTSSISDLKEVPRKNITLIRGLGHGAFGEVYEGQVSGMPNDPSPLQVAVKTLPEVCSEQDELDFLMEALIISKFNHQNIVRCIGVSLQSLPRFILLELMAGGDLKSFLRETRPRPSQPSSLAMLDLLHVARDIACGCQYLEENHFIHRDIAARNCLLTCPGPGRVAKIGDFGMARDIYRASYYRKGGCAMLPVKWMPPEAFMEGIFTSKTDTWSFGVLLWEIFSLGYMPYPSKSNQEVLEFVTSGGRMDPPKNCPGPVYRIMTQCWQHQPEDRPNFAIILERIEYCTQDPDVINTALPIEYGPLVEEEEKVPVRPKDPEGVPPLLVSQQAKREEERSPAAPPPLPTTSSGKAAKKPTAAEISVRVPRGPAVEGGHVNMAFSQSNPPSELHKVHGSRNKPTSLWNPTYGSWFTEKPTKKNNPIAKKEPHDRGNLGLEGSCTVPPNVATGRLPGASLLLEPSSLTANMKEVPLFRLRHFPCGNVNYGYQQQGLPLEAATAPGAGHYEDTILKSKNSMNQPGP

Oc1ccc(-c2ccc3c(-c4ccc(N5CCCCC5)cc4)n[nH]c3n2)cc1
IC50 [1]: 339 nM

OCC1CCCCN1Cc1ccc(-c2n[nH]c3nc(-c4ccc(O)cc4)ccc23)o1 (stereo not drawn)
IC50 [1]: 568 nM

Oc1ccc(-c2ccc3c(-c4ccc(N5CCOCC5)cc4)n[nH]c3n2)cc1
IC50 [1]: 425 nM

Oc1ccc(-c2ccc3c(-c4cnn(C5CCNCC5)c4)n[nH]c3n2)cc1
IC50 [1]: 13.8 nM | IC50 (KARPAS-299): 340 nM

Oc1ccc(-c2ccc3c(-c4ccc(CN5CCCCC5)o4)n[nH]c3n2)cc1
IC50 [1]: 394 nM

CC(C)N1CCN(c2ccc(-c3n[nH]c4nc(-c5ccc(Cl)cc5)ccc34)cc2)CC1
IC50 [1]: > 2000 nM | IC50 (KARPAS-299): > 10000 nM

CC(C)N1CCN(c2ccc(-c3n[nH]c4nc(-c5ccc(O)cc5)ccc34)cc2)CC1
IC50 [1]: 47.4 nM

CC(C)N1CCN(c2ccc(-c3n[nH]c4nc(-c5ccc(C(C)(C)O)cc5)ccc34)cc2)CC1
IC50 [1]: > 2000 nM | IC50 (KARPAS-299): 105000 nM

CC(C)N1CCN(c2ccc(-c3n[nH]c4nc(-c5ccc(C#N)cc5)ccc34)cc2)CC1
IC50 [1]: > 2000 nM | IC50 (KARPAS-299): > 2000 nM

CC(C)N1CCN(c2ccc(-c3n[nH]c4nc(-c5cc(F)c(O)c(F)c5)ccc34)cc2)CC1
IC50 [1]: 649 nM | IC50 (KARPAS-299): 149 nM

Cc1ccc(-c2n[nH]c3nc(-c4ccc(O)cc4)ccc23)o1
IC50 [1]: 53.9 nM

Oc1ccc(-c2ccc3c(-c4ccc(CN5CCOCC5)o4)n[nH]c3n2)cc1
IC50 [1]: 94.1 nM

Oc1ccc(-c2ccc3c(-c4ccc(Cl)cc4)n[nH]c3n2)cc1
IC50 [1]: > 2000 nM

Oc1ccc(-c2ccc3c(-c4ccc(CN5CCCC5)o4)n[nH]c3n2)cc1
IC50 [1]: 253 nM

Oc1ccc(-c2ccc3c(-c4ccc(F)cc4)n[nH]c3n2)cc1
IC50 [1]: 336 nM

CN(CCO)Cc1ccc(-c2n[nH]c3nc(-c4ccc(O)cc4)ccc23)o1
IC50 [1]: 83.2 nM

CN1CCN(Cc2ccc(-c3n[nH]c4nc(-c5ccc(O)cc5)ccc34)o2)CC1
IC50 [1]: 194 nM

Oc1ccc(-c2ccc3c(-c4ccccc4)n[nH]c3n2)cc1
IC50 [1]: 251 nM | IC50 (KARPAS-299): 24.2 nM

COc1ccc(-c2n[nH]c3nc(-c4ccc(O)cc4)ccc23)cc1
IC50 [1]: 239 nM

Oc1ccc(-c2ccc3c(-c4ccc(O)cc4)n[nH]c3n2)cc1
IC50 [1]: 130 nM

CC(C)N1CCN(Cc2ccc(-c3n[nH]c4nc(-c5ccc(O)cc5)ccc34)o2)CC1
IC50 [1]: 103 nM

COc1cc(N2CCN(C(C)C)CC2)ccc1-c1n[nH]c2nc(-c3ccc(O)c(F)c3)ccc12
IC50 [1]: 53.1 nM | IC50 (KARPAS-299): 263 nM

CC(C)N1CCN(c2ccc(-c3n[nH]c4nc(-c5ccc(O)c(F)c5)ccc34)cc2)CC1
IC50 [1]: 1.58 nM | IC50 (KARPAS-299): > 2000 nM

CC(C)N1CCN(c2ccc(-c3n[nH]c4nc(-c5ccc(F)cc5)ccc34)cc2)CC1
IC50 [1]: > 2000 nM

COc1cc(N2CCN(C(C)C)CC2)ccc1-c1n[nH]c2nc(-c3ccc(O)cc3)ccc12
IC50 [1]: 27 nM | IC50 (KARPAS-299): 2850 nM

Oc1ccc(-c2ccc3c(-c4cnn(C5CCNCC5)c4)n[nH]c3n2)cc1F
IC50 [1]: 39.6 nM | IC50 (KARPAS-299): 2100 nM

CC(C)N1CCN(c2ccc(-c3n[nH]c4nc(-c5ccc(N)cc5)ccc34)cc2)CC1
IC50 [1]: 218 nM | IC50 (KARPAS-299): > 10000 nM
